Key:
[1] = biological target: α1B (Cav2.2), β3 and α2δ subunits of the N-type calcium channel (stable HEK cell line) (Rattus norvegicus, UniProt Q02294); test: Calcium-dye indicator assay (FDSS, KCl depolarization); type: cell-based; conditions: calcium mobilization response to 50 mM KCl; six-point concentration-response
Outline: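 HEK cells stably co-expressing α1B, β3 and α2δ subunits, loaded with calcium dye, exposed to compound for 5 min before 50 mM KCl depolarization, 3 min further read on FDSS. Maximal fluorescence normalized to KCl maximum and buffer minimum; IC50 by sigmoidal nonlinear regression.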

[2] = tested on: Cav2.2 (N-type calcium channel; α1B, α2δ and β3 subunits stably expressed in HEK293 cells); test: Automated electrophysiology assay (QPatch-HT patch clamp); type: cell-based; conditions: 0.1 μM; for QPatch % Inhibition, High Freq: high frequency stimulation (15th pulse of 5 Hz train); for QPatch % Inhibition, Low Freq: low frequency stimulation (1st pulse of train)
Outline: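 Whole-cell automated patch clamp of HEK293 cells stably expressing α1B, α2δ-1 and β3, with 10 mM Ba²⁺/TEA external solution and CsCl internal solution. From −80 mV, trains of 15 pulses to +20 mV at 5 Hz every 30 s. Pulse 1 and pulse 15 currents normalized to the no-compound control period, with CdCl2 used to zero the current.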

Row | Structure (SMILES) | IC50 [1] [nM] | QPatch % Inhibition, High Freq [2] [%] | QPatch % Inhibition, Low Freq [2] [%]
1 | COc1ccccc1-n1nc(C2CC(C)(C)OC(C)(C)C2)cc1-c1ccc(C(C)=O)cc1 [Compound 12, 1-{4-[1-(2-Methoxyphenyl)-3-(2,2,6,6-tetramethyltetrahydro-2H-pyran-4-yl)-1H-pyrazol-5-yl]phenyl}ethanone] | 2.6 | 41 | 30
2 | COc1ccccc1-n1nc([C@H]2CCO[C@@H](C(C)C)C2)cc1-c1ccc(Cl)cc1 (relative stereo) [Compound 64, 5-(4-Chlorophenyl)-1-(2-methoxyphenyl)-3-[(cis)-2-(1-methylethyl)tetrahydro-2H-pyran-4-yl]-1H-pyrazole] | 7.2 | 55 | 18
3 | COc1ccccc1-n1nc(C2=C[C@H](C)O[C@@H](C)C2)cc1-c1ccc(Cl)cc1 (relative stereo) [Compound 96, 5-(4-Chlorophenyl)-3-[(trans)-2,6-dimethyl-3,6-dihydro-2H-pyran-4-yl]-1-(2-methoxyphenyl)-1H-pyrazole] | 8.2 | 29 | −20
4 | COc1ccccc1-n1nc(C2CC(C)(C)OC(C)(C)C2)cc1-c1ccc(Cl)cc1 [Compound 1, 5-(4-Chloro-phenyl)-1-(2-methoxy-phenyl)-3-(2,2,6,6-tetramethyl-tetrahydro-pyran-4-yl)-1H-pyrazole] | 1.7 | 63 | 58
5 | COc1ccccc1-n1nc(C2CC(C)(C)OC(C)(C)C2)cc1-c1ccc(Cl)cc1F [Compound 3, 5-(4-Chloro-2-fluorophenyl)-1-(2-methoxyphenyl)-3-(2,2,6,6-tetramethyltetrahydro-2H-pyran-4-yl)-1H-pyrazole] | 1 | 42 | 34
6 | COc1ccc(-c2cc(C3CC(C)(C)OC(C)(C)C3)nn2-c2ccccc2OC)cn1 [Compound 13, 2-Methoxy-5-[1-(2-methoxyphenyl)-3-(2,2,6,6-tetramethyltetrahydro-2H-pyran-4-yl)-1H-pyrazol-5-yl]pyridine] | 4.9 | 47.5 | 32
7 | COc1ccccc1-n1nc(C2CC(C)(C)OC(C)(C)C2)cc1-c1ccc(SC)cc1 [Compound 6, 1-(2-Methoxyphenyl)-5-[4-(methylsulfanyl)phenyl]-3-(2,2,6,6-tetramethyltetrahydro-2H-pyran-4-yl)-1H-pyrazole] | 1.1 | 48 | 48
8 | COc1ccccc1-n1nc([C@H]2C[C@@H](C)O[C@@H](C)C2)cc1-c1ccc(Cl)cc1 [Compound 63, 5-(4-Chlorophenyl)-3-[(2R,4r,6S)-2,6-dimethyltetrahydro-2H-pyran-4-yl]-1-(2-methoxyphenyl)-1H-pyrazole] | 2.5 | 74.5 | 60
9 | CCOC(=O)c1ccc(-c2cc(C3CC(C)(C)OC(C)(C)C3)nn2-c2ccccc2OC)cc1 [Compound 17, Ethyl 4-[1-(2-methoxyphenyl)-3-(2,2,6,6-tetramethyltetrahydro-2H-pyran-4-yl)-1H-pyrazol-5-yl]benzoate] | 5.1 | 82 | 84
10 | COc1ccc(-c2cc(C3CC(C)(C)OC(C)(C)C3)nn2-c2ccccc2OC)cc1 [Compound 5, 1-(2-Methoxyphenyl)-5-(4-methoxyphenyl)-3-(2,2,6,6-tetramethyltetrahydro-2H-pyran-4-yl)-1H-pyrazole] | 1.3 | 67 | 59
11 | COc1ccccc1-n1nc(C2CCOC(C)(C)C2)cc1-c1ccc(Cl)cc1 (stereo not drawn) [Compound 62, 5-(4-Chlorophenyl)-3-(2,2-dimethyltetrahydro-2H-pyran-4-yl)-1-(2-methoxyphenyl)-1H-pyrazole] | 2 | 67 | 45
12 | COc1ccccc1-n1nc(C2=CC(C)(C)OC(C)(C)C2)cc1-c1ccc(Cl)cc1 [Compound 95, 5-(4-Chlorophenyl)-1-(2-methoxyphenyl)-3-(2,2,6,6-tetramethyl-3,6-dihydro-2H-pyran-4-yl)-1H-pyrazole] | 3.4 | 26 | 14
13 | COc1ccccc1-n1nc(C2CC(C)(C)OC(C)(C)C2)cc1-c1ccc(C(C)(C)C)cc1 [Compound 15, 5-(4-tert-Butylphenyl)-1-(2-methoxyphenyl)-3-(2,2,6,6-tetramethyltetrahydro-2H-pyran-4-yl)-1H-pyrazole] | 4.9 | 37 | 20
14 | COc1ccccc1-n1nc(C2CC(C)(C)OC(C)(C)C2)cc1-c1ccc(C)nc1 [Compound 23, 5-[1-(2-Methoxyphenyl)-3-(2,2,6,6-tetramethyltetrahydro-2H-pyran-4-yl)-1H-pyrazol-5-yl]-2-methylpyridine] | 6.2 | −8 | −19

Continued, in another order:

Row | IC50 [1] [nM] | Structure (SMILES) | QPatch % Inhibition, High Freq [2] [%] | QPatch % Inhibition, Low Freq [2] [%]
15 | 12 | COc1ccccc1-n1nc(C2CC(C)(C)OC(C)(C)C2)cc1-c1cccs1 [Compound 26, 1-(2-Methoxyphenyl)-3-(2,2,6,6-tetramethyltetrahydro-2H-pyran-4-yl)-5-thiophen-2-yl-1H-pyrazole] | 42 | 24
16 | 38 | COc1ccccc1-n1nc(C2CC(C)(C)OC(C)(C)C2)cc1-c1ccc(OCCN2CCOCC2)cc1 [Compound 72, 4-(2-{4-[1-(2-Methoxyphenyl)-3-(2,2,6,6-tetramethyltetrahydro-2H-pyran-4-yl)-1H-pyrazol-5-yl]phenoxy}ethyl)morpholine] | 11 | 4
17 | 6 | COc1ccccc1-n1nc(C2CC(C)(C)OC(C)(C)C2)cc1-c1ccccc1N [Compound 22, 2-[1-(2-Methoxyphenyl)-3-(2,2,6,6-tetramethyltetrahydro-2H-pyran-4-yl)-1H-pyrazol-5-yl]-aniline] | 0 | 0
18 | 5.5 | CN(C)c1ccccc1-n1nc(C2CC(C)(C)OC(C)(C)C2)cc1-c1ccc(Cl)cc1 [Compound 49, 2-[5-(4-Chlorophenyl)-3-(2,2,6,6-tetramethyltetrahydro-2H-pyran-4-yl)-1H-pyrazol-1-yl]-N,N-dimethylaniline] | 47 | 33
19 | 17 | COc1ccccc1-n1nc(C2CC(C)(C)OC(C)(C)C2)cc1-c1ccc(C)o1 [Compound 28, 1-(2-Methoxyphenyl)-5-(5-methylfuran-2-yl)-3-(2,2,6,6-tetramethyltetrahydro-2H-pyran-4-yl)-1H-pyrazole] | −5 | −18
20 | 5.1 | COc1ccccc1-n1nc(C2CC(C)(C)OC2(C)C)cc1-c1ccc(Cl)cc1 (stereo not drawn) [Compound 98, 5-(4-Chlorophenyl)-1-(2-methoxyphenyl)-3-(2,2,5,5-tetramethyltetrahydrofuran-3-yl)-1H-pyrazole] | 61 | 44.5
21 | 5.5 | COc1cccc(-c2cc(C3CC(C)(C)OC(C)(C)C3)nn2-c2ccccc2OC)c1 [Compound 20, 1-(2-Methoxyphenyl)-5-(3-methoxyphenyl)-3-(2,2,6,6-tetramethyltetrahydro-2H-pyran-4-yl)-1H-pyrazole] | 45 | 38
22 | 7 | CNc1ccccc1-n1nc(C2CC(C)(C)OC(C)(C)C2)cc1-c1ccc(Cl)cc1 [Compound 60, 2-[5-(4-Chlorophenyl)-3-(2,2,6,6-tetramethyltetrahydro-2H-pyran-4-yl)-1H-pyrazol-1-yl]-N-methylaniline] | 48 | 31
23 | 19 | COc1ccccc1-n1nc(C2CC(C)(C)OC(C)(C)C2)cc1-c1ccc(C(C)O)cc1 (stereo not drawn) [Compound 44, 1-{4-[1-(2-Methoxyphenyl)-3-(2,2,6,6-tetramethyltetrahydro-2H-pyran-4-yl)-1H-pyrazol-5-yl]-phenyl}-ethanol] | 6 | 20
